Measured values taken from patent publication EP4656642A1, “ESTROGEN RECEPTOR PROTEOLYSIS TARGETING CHIMERA COMPOUND AND USE THEREOF” (GAN & LEE PHARM CO., LTD, priority 2023, dated 2024).

Key:
Format in all cases: cell-based
ERα [1] = biological target: T1, ERα (Homo sapiens, UniProt P03372); assay: Degradation of ERα in MCF-7 cells (immunoblotting, 4 h)
T1 sequence (P03372 1-595): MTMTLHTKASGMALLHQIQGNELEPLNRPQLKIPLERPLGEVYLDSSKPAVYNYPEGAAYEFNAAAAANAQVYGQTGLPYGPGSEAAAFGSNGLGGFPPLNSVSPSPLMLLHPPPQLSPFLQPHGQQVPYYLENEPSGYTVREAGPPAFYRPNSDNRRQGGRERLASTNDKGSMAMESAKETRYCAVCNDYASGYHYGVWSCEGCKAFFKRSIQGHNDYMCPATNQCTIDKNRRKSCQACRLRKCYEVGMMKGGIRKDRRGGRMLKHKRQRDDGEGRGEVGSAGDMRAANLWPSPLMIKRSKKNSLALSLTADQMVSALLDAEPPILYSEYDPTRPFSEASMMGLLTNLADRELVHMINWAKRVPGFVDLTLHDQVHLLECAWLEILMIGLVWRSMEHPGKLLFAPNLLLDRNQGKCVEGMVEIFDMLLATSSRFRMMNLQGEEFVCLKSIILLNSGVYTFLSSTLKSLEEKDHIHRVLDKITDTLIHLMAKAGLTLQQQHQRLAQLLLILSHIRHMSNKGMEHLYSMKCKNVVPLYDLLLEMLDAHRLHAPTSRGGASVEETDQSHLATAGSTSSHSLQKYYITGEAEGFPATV
Summary of the method: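 Degradation rate reflects ERα band intensity, corrected to an internal reference protein, relative to control. Values come from Western blotting of lysates from MCF-7 cells exposed 4 h at 37°C to compounds at final concentrations of 0.15-1000nM.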

MCF-7 cells = assay: Inhibition of cell proliferation of MCF-7 cells (CCK-8, 9 days); conditions: treated for 9 days, CCK-8 kit (Table 6)
Summary of the method: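 Read-out was CCK-8 viability after 9-day continuous exposure (37°C, 5% CO2) of MCF-7 cells plated at 800/well in 10% FBS DMEM across several compound concentrations. Values are proliferation IC50s.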

ERα [2] = biological target: T1, ERα; assay: Degradation of ERα in T-47D cells (immunoblotting, 4 h); set-up: host or cells: T-47D
Summary of the method: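 ERα protein levels were assessed by immunoblot of RIPA lysates (with protease inhibitor) after 4 h exposure at 37°C. Compound was added in DMSO to T-47D cells at final concentrations of 0.15-1000 nM.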

| Degradation rate (%) of ERα in MCF-7 cells (ERα [1]; 1nM compound) | Degradation rate (%) of ERα in MCF-7 cells (ERα [1]; 10nM compound) | IC50 (MCF-7 cells) | Degradation rate (%) of ERα in T-47D cells (ERα [2]; 1nM compound) | Degradation rate (%) of ERα in T-47D cells (ERα [2]; 10nM compound) | Compound |
| --- | --- | --- | --- | --- | --- |
| 37% | 40% | 4020 nM | 63% | 76% | O=C1CCC(N2Cc3c(ccc4c3OCC43CCN(C(=O)[C@H]4C[C@@H](OC5CCN(c6ccc([C@@H]7c8ccc(O)cc8CC[C@@H]7c7ccccc7)cc6)CC5)C4)CC3)C2=O)C(=O)N1 (some centres unmarked) [H61] |
| 63% | 61% | 11.7 nM | 56% | 55% | C[C@@H]1Cc2cc(O)ccc2[C@@H](c2c(F)cc(N3CCC(C(=O)N4CCC(N5CCC6(CC5)COc5c6ccc6c5CN(C5CCC(=O)NC5=O)C6=O)CC4)CC3)cc2F)N1CC(F)F (some centres unmarked) [I2] |
| 40% | 67% | 14.9 nM | 41% | 68% | C[C@@H]1Cc2cc(O)ccc2C(c2c(F)cc(N3CCC4(CC3)CC(N3CCC(N5CCC6(CC5)COc5c6ccc6c5CN(C5CCC(=O)NC5=O)C6=O)[C@@H](F)C3)C4)cc2F)N1CC(F)F (some centres unmarked) [I3] |
| 60% | 56% | 10.5 nM | 55% | 68% | C[C@@H]1CN(C(=O)C2CCN(c3cc(F)c(C4c5ccc(O)cc5C[C@@H](C)N4CC(F)F)c(F)c3)CC2)CCC1N1CCC2(CC1)COc1c2ccc2c1CN(C1CCC(=O)NC1=O)C2=O (some centres unmarked) [I5] |
| 57% | 45% | 6.57 nM | 56% | 65% | C[C@@H]1Cc2cc(O)ccc2C(c2c(F)cc(N3CCN(C[C@H]4CC[C@H](C(=O)N5CCC6(CC5)COc5c6ccc6c5CN(C5CCC(=O)NC5=O)C6=O)CC4)CC3)cc2F)N1CC(F)F (some centres unmarked) [I6] |
| 21% | 41% | 303000 nM | 37% | 67% | O=C1CCC(N2Cc3c(ccc4c3OCC43CCN(c4ccc(C(=O)N5CCN(c6ccc([C@@H]7c8ccc(O)cc8CC[C@@H]7c7ccccc7)cc6)CC5)cn4)CC3)C2=O)C(=O)N1 (some centres unmarked) [J2] |
| 34% | 49% | 8.23 nM | 42% | 63% | O=C1CCC(N2Cc3c(ccc4c3OCC43CCN(c4ccc(C(=O)N5CCN(c6ccc([C@@H]7c8ccc(O)cc8CC[C@@H]7c7ccccc7)cc6)CC5)nc4)CC3)C2=O)C(=O)N1 (some centres unmarked) [J3] |
| 32% | 60% | 22.6 nM | 8% | 51% | O=C1CCC(N2Cc3c(ccc4c3OCC43CCN(C4C5CCC4CN(C(=O)C4CCN(c6ccc([C@@H]7c8ccc(O)cc8CC[C@@H]7c7ccccc7)cc6)CC4)C5)CC3)C2=O)C(=O)N1 (some centres unmarked) [J4] |
| 40% | 78% | 4.63 nM | 46% | 81% | O=C1CCC(N2Cc3c(ccc4c3OCC43CCN(C4CCN(CC5CCN(c6ccc([C@@H]7c8ccc(O)cc8CC[C@@H]7c7ccccc7)cc6)CC5)CC4F)CC3)C2=O)C(=O)N1 (some centres unmarked) [J5] |
| 52% | 68% | 9.31 nM | 39% | 81% | O=C1CCC(N2Cc3c(ccc4c3OCC43CCN([C@@H]4CCN(CC5CCN(c6ccc([C@@H]7c8ccc(O)cc8CC[C@@H]7c7ccccc7)cc6)CC5)C[C@@H]4F)CC3)C2=O)C(=O)N1 (some centres unmarked) [J6] |
| 29% | 75% | 486 nM | 16% | 67% | COC(=O)[C@H]1CC(N2CCC3(CC2)COc2c3ccc3c2CN(C2CCC(=O)NC2=O)C3=O)CCN1CC1CCN(c2ccc([C@@H]3c4ccc(O)cc4CC[C@@H]3c3ccccc3)cc2)CC1 (some centres unmarked) [J7] |
| 78% | 85% | 4.89 nM | 79% | 81% | O=C1CCC(N2Cc3c(ccc4c3OCC43CCN(C(=O)C4CCN(CC5CCN(c6ccc([C@@H]7c8ccc(O)cc8CC[C@@H]7c7ccccc7)cc6)CC5)CC4)CC3)C2=O)C(=O)N1 (some centres unmarked) [J8] |
| 63% | 69% | 5.64 nM | 78% | 83% | O=C1CCC(N2Cc3c(ccc4c3OCC43CCN(C(=O)C4CN(CC5CCN(c6ccc([C@@H]7c8ccc(O)cc8CC[C@@H]7c7ccccc7)cc6)CC5)C4)CC3)C2=O)C(=O)N1 (some centres unmarked) [J9] |
| 50% | 73% | 6.12 nM | 70% | 88% | CN(CC(=O)N1CCC2(CC1)COc1c2ccc2c1CN(C1CCC(=O)NC1=O)C2=O)CC1CCN(c2ccc([C@@H]3c4ccc(O)cc4CC[C@@H]3c3ccccc3)cc2)CC1 (some centres unmarked) [J10] |
| 40% | 75% | 4370 nM | 52% | 82% | C[C@@H]1Cc2c(ccc3[nH]ncc23)C(c2ccc(N3CCC4(CCN(CC(=O)N5CCC6(CC5)COc5c6ccc6c5CN(C5CCC(=O)NC5=O)C6=O)C4)CC3)cn2)N1CC(F)(F)F (some centres unmarked) [J11] |
| 5% | 39% | 9660 nM | 55% | 74% | C[C@@H]1Cc2c(ccc3[nH]ncc23)C(c2ccc(N3CCC4(CCN(C(=O)CN5CCC6(CC5)COc5c6ccc6c5CN(C5CCC(=O)NC5=O)C6=O)C4)CC3)cn2)N1CC(F)(F)F (some centres unmarked) [J14] |
| -2% | -3% | 511 nM | 7% | 27% | O=C1CCC(N2C(=O)c3cc4c(cc3C2=O)OC2(CCN(C3CC5(CCN(c6ccc([C@@H]7c8ccc(O)cc8CC[C@@H]7c7ccccc7)cc6)CC5)C3)CC2)C4)C(=O)N1 (some centres unmarked) [K1] |
| -10% | 3% | 1990 nM | 8% | 16% | O=C1CCC(N2Cc3c(ccc4c3OC3(CC4)CCN(C4CN(C5CCN(c6ccc([C@@H]7c8ccc(O)cc8CC[C@@H]7c7ccccc7)cc6)CC5)C4)CC3)C2=O)C(=O)N1 (some centres unmarked) [K2] |
| 48% | 53% | < 0.256 nM | 42% | 72% | O=C1CCC(N2Cc3c(ccc4c3OCC43CCN(C4CC5(CCN(C6CCN(c7ccc([C@@H]8c9ccc(O)cc9CC[C@@H]8c8ccccc8)cc7)CC6)CC5)C4)CC3)C2=O)C(=O)N1 (some centres unmarked) [K4] |
| 17% | 62% | 724 nM | 36% | 58% | O=C1CCC(N2Cc3c(ccc4c3OCC43CCN(CC4CCN(C5CCN(c6ccc([C@@H]7c8ccc(O)cc8CC[C@@H]7c7ccccc7)cc6)CC5)CC4)CC3)C2=O)C(=O)N1 (some centres unmarked) [K6] |
| 3% | 44% | 30 nM | 18% | 60% | O=C1CCC(N2Cc3c(ccc4c3OCC43CCN(C4CC5(C4)CN(C4CCN(c6ccc([C@@H]7c8ccc(O)cc8CC[C@@H]7c7ccccc7)cc6)CC4)C5)CC3)C2=O)C(=O)N1 (some centres unmarked) [K12] |
| -3% | 14% | 220 nM | 20% | 67% | O=C1CCC(N2Cc3cc4c(cc3C2=O)OC2(CC4)CN(C3CCC4(CC3)CCN(C3CCN(c5ccc([C@@H]6c7ccc(O)cc7CC[C@@H]6c6ccccc6)cc5)CC3)CC4)C2)C(=O)N1 (some centres unmarked) [K14] |
